In PubChem BioAssay (NCI):
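A five-concentration, 48-hour dose response in 96-well plates underlies each endpoint, interpolated linearly between surrounding concentrations. The concentration for full growth arrest is given as TGI.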

Tests used:
Assay in all cases: growth of human tumour cells (NCI), 48 h
A549 NSCLC = tested on: A549 NSCLC
CCRF-CEM leukemia = tested on: CCRF-CEM leukemia
COLO 205 colon = tested on: COLO 205 colon
DMS 114 small cell lung = tested on: DMS 114 small cell lung
EKVX NSCLC = tested on: EKVX NSCLC
HCT-116 colon = tested on: HCT-116 colon
HL-60(TB) leukemia = tested on: HL-60(TB) leukemia
HOP-62 NSCLC = tested on: HOP-62 NSCLC
HOP-92 NSCLC = tested on: HOP-92 NSCLC
HT29 colon = tested on: HT29 colon
IGROV1 ovarian = tested on: IGROV1 ovarian
K-562 leukemia = tested on: K-562 leukemia
KM12 colon = tested on: KM12 colon
KM20L2 colon = tested on: KM20L2 colon
LXFL 529 NSCLC = tested on: LXFL 529 NSCLC
M14 melanoma = tested on: M14 melanoma
M19-MEL melanoma = tested on: M19-MEL melanoma
MALME-3M melanoma = tested on: MALME-3M melanoma
MOLT-4 leukemia = tested on: MOLT-4 leukemia
NCI-H23 lung = tested on: NCI-H23 lung
NCI-H460 lung = tested on: NCI-H460 lung
NCI-H522 lung = tested on: NCI-H522 lung
OVCAR-3 ovarian = tested on: OVCAR-3 ovarian
OVCAR-4 ovarian = tested on: OVCAR-4 ovarian
OVCAR-8 ovarian = tested on: OVCAR-8 ovarian
RPMI-8226 leukemia = tested on: RPMI-8226 leukemia
RXF 393 renal = tested on: RXF 393 renal
SF-268 CNS = tested on: SF-268 CNS
SF-295 CNS = tested on: SF-295 CNS
SF-539 CNS = tested on: SF-539 CNS
SK-MEL-2 melanoma = tested on: SK-MEL-2 melanoma
SK-MEL-28 melanoma = tested on: SK-MEL-28 melanoma
SK-MEL-5 melanoma = tested on: SK-MEL-5 melanoma
SK-OV-3 ovarian = tested on: SK-OV-3 ovarian
SN12C renal = tested on: SN12C renal
SNB-19 CNS = tested on: SNB-19 CNS
SNB-75 CNS = tested on: SNB-75 CNS
SR leukemia = tested on: SR leukemia
SW-620 colon = tested on: SW-620 colon
TK-10 renal = tested on: TK-10 renal
U251 CNS = tested on: U251 CNS
UACC-257 melanoma = tested on: UACC-257 melanoma
UACC-62 melanoma = tested on: UACC-62 melanoma
UO-31 renal = tested on: UO-31 renal
XF 498 CNS = tested on: XF 498 CNS
786-0 renal = tested on: 786-0 renal
A498 renal = tested on: A498 renal
ACHN renal = tested on: ACHN renal
CAKI-1 renal = tested on: CAKI-1 renal
DLD-1 colon = tested on: DLD-1 colon
DMS 273 small cell lung = tested on: DMS 273 small cell lung
HCC-2998 colon = tested on: HCC-2998 colon
HCT-15 colon = tested on: HCT-15 colon
HOP-18 NSCLC = tested on: HOP-18 NSCLC
NCI-H226 lung = tested on: NCI-H226 lung
SNB-78 CNS = tested on: SNB-78 CNS
LOX IMVI melanoma = tested on: LOX IMVI melanoma
OVCAR-5 ovarian = tested on: OVCAR-5 ovarian

Measured: TGI

O=C1C(Cl)N(c2ccc(Cl)cc2Cl)C1c1c[nH]c2ccccc12 (stereo not drawn)
> 100 µM: A549 NSCLC | CCRF-CEM leukemia | COLO 205 colon | DMS 114 small cell lung | EKVX NSCLC | HCT-116 colon | HL-60(TB) leukemia | HOP-62 NSCLC | HOP-92 NSCLC | HT29 colon | IGROV1 ovarian | K-562 leukemia | KM12 colon | KM20L2 colon | LXFL 529 NSCLC | M14 melanoma | M19-MEL melanoma | MALME-3M melanoma | MOLT-4 leukemia | NCI-H23 lung | NCI-H460 lung | NCI-H522 lung | OVCAR-3 ovarian | OVCAR-4 ovarian | OVCAR-8 ovarian | RPMI-8226 leukemia | RXF 393 renal | SF-268 CNS | SF-295 CNS | SF-539 CNS | SK-MEL-2 melanoma | SK-MEL-28 melanoma | SK-MEL-5 melanoma | SK-OV-3 ovarian | SN12C renal | SNB-19 CNS | SNB-75 CNS | SR leukemia | SW-620 colon | TK-10 renal | U251 CNS | UACC-257 melanoma | UACC-62 melanoma | UO-31 renal | XF 498 CNS

CC1CC(=O)C2CC(CO)=CCCC2C1(C)CC/C(=C/CO)CO (stereo not drawn)
> 100 µM: 786-0 renal | A498 renal | A549 NSCLC | ACHN renal | CAKI-1 renal | CCRF-CEM leukemia | COLO 205 colon | DLD-1 colon | DMS 114 small cell lung | DMS 273 small cell lung | EKVX NSCLC | HCC-2998 colon | HCT-116 colon | HCT-15 colon | HOP-18 NSCLC | HOP-92 NSCLC | HT29 colon | IGROV1 ovarian | K-562 leukemia | KM12 colon | LXFL 529 NSCLC | M14 melanoma | M19-MEL melanoma | MALME-3M melanoma | MOLT-4 leukemia | NCI-H226 lung | NCI-H23 lung | NCI-H460 lung | NCI-H522 lung | OVCAR-3 ovarian | OVCAR-8 ovarian | RPMI-8226 leukemia | RXF 393 renal | SF-295 CNS | SK-MEL-28 melanoma | SK-MEL-5 melanoma | SK-OV-3 ovarian | SN12C renal | SNB-75 CNS | SNB-78 CNS | SW-620 colon | TK-10 renal | U251 CNS | UACC-257 melanoma | UACC-62 melanoma | UO-31 renal

O=C(c1cccs1)N(C(=S)N1CCN(c2ccccc2)CC1)C1CCCCC1
> 100 µM: 786-0 renal | A549 NSCLC | ACHN renal | CAKI-1 renal | CCRF-CEM leukemia | COLO 205 colon | DLD-1 colon | DMS 114 small cell lung | DMS 273 small cell lung | HCT-116 colon | HCT-15 colon | HL-60(TB) leukemia | HOP-18 NSCLC | HOP-62 NSCLC | HOP-92 NSCLC | HT29 colon | IGROV1 ovarian | K-562 leukemia | KM12 colon | KM20L2 colon | LOX IMVI melanoma | LXFL 529 NSCLC | M14 melanoma | M19-MEL melanoma | MALME-3M melanoma | MOLT-4 leukemia | NCI-H23 lung | NCI-H460 lung | NCI-H522 lung | OVCAR-3 ovarian | OVCAR-4 ovarian | OVCAR-5 ovarian | OVCAR-8 ovarian | RPMI-8226 leukemia | RXF 393 renal | SF-268 CNS | SF-295 CNS | SF-539 CNS | SK-MEL-2 melanoma | SK-MEL-28 melanoma | SK-MEL-5 melanoma | SK-OV-3 ovarian | SN12C renal | SNB-19 CNS | SNB-75 CNS | SNB-78 CNS | SR leukemia | SW-620 colon | TK-10 renal | U251 CNS | UACC-257 melanoma | UACC-62 melanoma | UO-31 renal

N#CC1(Cc2ccccc2[N+](=O)[O-])c2ccccc2C2C(N1C(=O)c1ccccc1)C2(Cl)Cl (stereo not drawn)
> 100 µM: 786-0 renal | A498 renal | A549 NSCLC | ACHN renal | CAKI-1 renal | CCRF-CEM leukemia | COLO 205 colon | DLD-1 colon | DMS 114 small cell lung | DMS 273 small cell lung | EKVX NSCLC | HCC-2998 colon | HCT-116 colon | HCT-15 colon | HOP-18 NSCLC | HOP-92 NSCLC | HT29 colon | IGROV1 ovarian | K-562 leukemia | KM12 colon | KM20L2 colon | LOX IMVI melanoma | LXFL 529 NSCLC | M14 melanoma | M19-MEL melanoma | MALME-3M melanoma | MOLT-4 leukemia | NCI-H226 lung | NCI-H23 lung | NCI-H460 lung | NCI-H522 lung | OVCAR-3 ovarian | OVCAR-4 ovarian | OVCAR-5 ovarian | OVCAR-8 ovarian | RXF 393 renal | SF-268 CNS | SF-295 CNS | SF-539 CNS | SK-MEL-2 melanoma | SK-MEL-28 melanoma | SK-MEL-5 melanoma | SK-OV-3 ovarian | SN12C renal | SNB-19 CNS | SNB-75 CNS | SNB-78 CNS | SW-620 colon | TK-10 renal | U251 CNS | UACC-257 melanoma | UACC-62 melanoma | UO-31 renal

CC1(C)c2ccccc2C(C)(C)C(C(=O)Nc2ccccc2)C1C(=O)O (stereo not drawn)
> 100 µM: 786-0 renal | A498 renal | A549 NSCLC | ACHN renal | CCRF-CEM leukemia | COLO 205 colon | DLD-1 colon | DMS 114 small cell lung | DMS 273 small cell lung | EKVX NSCLC | HCC-2998 colon | HCT-116 colon | HL-60(TB) leukemia | HOP-18 NSCLC | HOP-62 NSCLC | HOP-92 NSCLC | HT29 colon | K-562 leukemia | KM12 colon | KM20L2 colon | LOX IMVI melanoma | LXFL 529 NSCLC | M14 melanoma | M19-MEL melanoma | MALME-3M melanoma | MOLT-4 leukemia | NCI-H226 lung | NCI-H23 lung | NCI-H522 lung | OVCAR-3 ovarian | OVCAR-5 ovarian | OVCAR-8 ovarian | RPMI-8226 leukemia | RXF 393 renal | SF-268 CNS | SF-295 CNS | SF-539 CNS | SK-MEL-2 melanoma | SK-MEL-28 melanoma | SK-MEL-5 melanoma | SK-OV-3 ovarian | SN12C renal | SNB-19 CNS | SNB-75 CNS | SNB-78 CNS | SW-620 colon | TK-10 renal | U251 CNS | UACC-257 melanoma | UACC-62 melanoma | UO-31 renal
